According to PubChem BioAssay (NCI):
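Exposure lasted 48 hours, with cells grown in 96-well plates and compounds tested at five concentrations. TGI denotes the concentration required for complete inhibition of growth.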

Columns and labels:
Assay in all cases: DTP human tumour cell line panel, 48 h
PC-3 prostate = system: PC-3 prostate
SNB-75 CNS = system: SNB-75 CNS
SNB-19 CNS = system: SNB-19 CNS
TK-10 renal = system: TK-10 renal
HCT-116 colon = system: HCT-116 colon
CCRF-CEM leukemia = system: CCRF-CEM leukemia
786-0 renal = system: 786-0 renal
OVCAR-8 ovarian = system: OVCAR-8 ovarian
IGROV1 ovarian = system: IGROV1 ovarian
LOX IMVI melanoma = system: LOX IMVI melanoma
UACC-62 melanoma = system: UACC-62 melanoma
MDA-MB-435 = system: MDA-MB-435
A549 NSCLC = system: A549 NSCLC
NCI-H226 lung = system: NCI-H226 lung
SR leukemia = system: SR leukemia
NCI/ADR-RES ovarian = system: NCI/ADR-RES ovarian
SK-MEL-2 melanoma = system: SK-MEL-2 melanoma
SK-MEL-28 melanoma = system: SK-MEL-28 melanoma
CAKI-1 renal = system: CAKI-1 renal
KM12 colon = system: KM12 colon

| Structure (SMILES) | TGI (PC-3 prostate) [µM] | TGI (SNB-75 CNS) [µM] | TGI (SNB-19 CNS) [µM] | TGI (TK-10 renal) [µM] | TGI (HCT-116 colon) [µM] | TGI (CCRF-CEM leukemia) [µM] | TGI (786-0 renal) [µM] | TGI (OVCAR-8 ovarian) [µM] | TGI (IGROV1 ovarian) [µM] | TGI (LOX IMVI melanoma) [µM] | TGI (UACC-62 melanoma) [µM] | TGI (MDA-MB-435) [µM] | TGI (A549 NSCLC) [µM] | TGI (NCI-H226 lung) [µM] | TGI (SR leukemia) [µM] | TGI (NCI/ADR-RES ovarian) [µM] | TGI (SK-MEL-2 melanoma) [µM] | TGI (SK-MEL-28 melanoma) [µM] | TGI (CAKI-1 renal) [µM] | TGI (KM12 colon) [µM] |
| --- | --- | --- | --- | --- | --- | --- | --- | --- | --- | --- | --- | --- | --- | --- | --- | --- | --- | --- | --- | --- |
| Cn1c(=O)c2c(nc3n(CCCCl)c(=O)ccn23)n(C)c1=O | > 100 | > 100 | > 100 | > 100 | > 100 | > 100 | > 100 | > 100 | > 100 | > 100 | > 100 | > 100 | > 100 | > 100 | > 100 | > 100 | > 100 | > 100 | > 100 | > 100 |
| c1ccc(-c2nnc(-c3ccccn3)c3c2C[C@@H]2C[C@@H]4Cc5c(-c6ccccn6)nnc(-c6ccccn6)c5[C@@H]4[C@H]32)nc1 | > 100 | > 100 | > 100 | > 100 | > 100 | > 100 | > 100 | > 100 | > 100 | > 100 | > 100 | > 100 | > 100 | > 100 | > 100 | > 100 | > 100 | 75.9 | > 100 | > 100 |
| O=[N+]([O-])c1c(F)c(F)c2c(c1F)Nc1ccccc1S2 | 22.4 | 32.6 | 19.2 | 38.4 | 6.18 | 6.46 | 21.6 | 3.89 | 8.64 | 3.39 | 20.4 | 14.4 | 36.9 | 35.2 | 5.61 | 59.7 | 4.75 | 5.74 | 8.24 | 15.5 |
| CC[C@H](CCCC[C@H]1CC[C@@H]2CC(=O)C[C@H]12)OC | > 100 | > 100 | > 100 | > 100 | > 100 | > 100 | > 100 | > 100 | > 100 | > 100 | > 100 | > 100 | > 100 | > 100 | > 100 | > 100 | > 100 | > 100 | > 100 | > 100 |
| CC1(C)C2C=C(CCN3CCOCC3)CC1C2 (stereo not given) | > 100 | > 100 | > 100 | > 100 | > 100 | > 100 | > 100 | > 100 | > 100 | > 100 | > 100 | > 100 | > 100 | > 100 | > 100 | > 100 | > 100 | > 100 | > 100 | > 100 |
| C=C(CCOC)CCC1CCCCC(=C)[C@H]1OC(C)=O (stereo not given in full) | > 100 | > 100 | > 100 | > 100 | > 100 | > 100 | > 100 | > 100 | > 100 | > 100 | > 100 | > 100 | > 100 | > 100 | > 100 | > 100 | > 100 | > 100 | > 100 | > 100 |
